Reference: patent US8809341B2, “2,4-pyrimidinediamine compounds and uses as anti-proliferative agents” (Rigel Pharmaceuticals, Inc., priority 2003, dated 2014)
One block for each compound: values may come before it.

Tests used:
[1] = test system: H1299 cells; experiment: in vitro antiproliferation assay, H1299 (lung); format: cell-based
Experimental: (§1) The IC50 values of various compounds against a various different tumor cell lines were determined using standard in vitro antiproliferation assays. The tumor cell lines tested were as follows: A549 (lung); H1299 (lung), ACHN (kidney/p53 wt), CAKI (renal cell carcinoma), NCI-H460 (lung); HCT116 (colon/p53w0; HELA (cervix/p53 wt), HUH7 (liver/p53 wt), HUVEC (primary endothelial), LNCAP (prostate), HT-29 (colon); MCF-7 (breast); MCF-7 (breast/ER positive), MDA MB435S (breast); MDA MB231 (breast/ER negative), DU145 (prostate); BxPC-3 (pancreatic); SKOV-3 (ovarian); HepG2 (hepatic), NDHF primary normal human dermal fibroblast), SKMEL28 (breast/p53mut), SKMEL5 (breast/p53 wt), U20S (bone) and PC3 (prostate). […] A blank indicates the specified compound was not tested against the specified cell line.

[2] = test system: A549 cells; experiment: in vitro antiproliferation assay, A549 (lung); format: cell-based
Experimental: as §1

[3] = H1299 (lung) cells, antiproliferation
[4] = A549 (lung) cells, antiproliferation
[5] = IC50 class against H1299 (lung) tumor cells
[6] = IC50 class against A549 (lung) tumor cells
[7] = Table 5, in vitro antiproliferation, H1299 (lung) cells
[8] = Table 5, in vitro antiproliferation, A549 (lung) cells
[9] = H1299 (lung) cells, in vitro antiproliferation
[10] = A549 (lung) cells, in vitro antiproliferation
[11] = Homo sapiens, NCI-H1299, H1299 (lung) cells
[12] = Homo sapiens, A549 (lung) cells
[13] = in vitro antiproliferation, H1299 (lung) cells, Table 4, compounds with no designated stereochemistry tested as racemate
[14] = in vitro antiproliferation, A549 (lung) cells, Table 4, compounds with no designated stereochemistry tested as racemate

IC50 [1, 3]: ≤ 20 µM
IC50 [2, 4]: ≤ 20 µM
SMILES: CNC(=O)c1ccc(Nc2ncc(F)c(Nc3cc(OC)cc(OC)c3)n2)cc1Cl [compound 872]

IC50 [1, 7]: ≤ 20 µM
IC50 [2, 8]: ≤ 20 µM
SMILES: CC(=O)N1CCN(c2cccc(Nc3ncc(F)c(Nc4ccc5c(c4)OCCO5)n3)c2)CC1 [compound 550]

IC50 [1, 11]: ≤ 20 µM
IC50 [2, 12]: ≤ 20 µM
SMILES: COc1cc(C(N)=O)c(Nc2ncc(F)c(NC3CCCCC3)n2)cc1OC(=O)c1ccccc1 [compound 1164]

IC50 [1, 3]: ≤ 20 µM
IC50 [2, 4]: ≤ 20 µM
SMILES: COc1ccc(Nc2nc(Nc3ccc(C(N)=O)c(Cl)c3)ncc2F)cc1Cl [compound 1033]

IC50 [1, 13]: > 20 µM
IC50 [2, 14]: ≤ 20 µM
SMILES: Cc1cc(C)cc(Nc2ncc(F)c(N(C)c3ccc4c(c3)N(C)C(=O)C(C)(C)O4)n2)c1 [compound 324]

IC50 [1, 5]: ≤ 20 µM
IC50 [2, 6]: ≤ 20 µM
SMILES: CCOC(=O)N1CCC(Nc2nc(Nc3ccc(N4CCN(C)CC4)c(Cl)c3)ncc2F)CC1 [compound 187]

IC50 [1, 5]: ≤ 20 µM
IC50 [2, 6]: ≤ 20 µM
SMILES: Cc1cc(Nc2ncc(F)c(NC3CC(C)(C)N(C)C(C)(C)C3)n2)ccc1N1CCN(C)CC1 [compound 181]

IC50 [1, 7]: ≤ 20 µM
IC50 [2, 8]: > 20 µM
SMILES: CCOC(=O)COc1cccc(Nc2ncc(F)c(Nc3ccc4c(c3)OCCO4)n2)c1 [compound 491]

IC50 [1, 3]: > 20 µM
IC50 [2, 4]: > 20 µM
SMILES: CNC(=O)COc1cccc(Nc2ncc(F)c(N(C)c3ccc(OC)c(OC)c3)n2)c1 [compound 870]

IC50 [1, 7]: > 20 µM
IC50 [2, 8]: > 20 µM
SMILES: Cc1cc(Nc2ncc(F)c(Nc3ccc4c(c3)OC(F)(F)O4)n2)cc(C)c1Cl [compound 565]

IC50 [1, 9]: ≤ 20 µM
IC50 [2, 10]: ≤ 20 µM
SMILES: COc1cc(Nc2nc(Nc3ccc(N4CCN(C(C)=O)CC4)cc3)ncc2F)cc(OC)c1 [compound 866]

IC50 [1, 5]: ≤ 20 µM
IC50 [2, 6]: ≤ 20 µM
SMILES: CN1CCN(c2ccc(Nc3ncc(F)c(NC(C)(C)C)n3)cc2C(F)(F)F)CC1 [compound 224]

The remaining lines, values behind:

SMILES: CC1(C)Oc2ccc(Nc3nc(Nc4ccc5c(cnn5C(C)(C)CC5CCC5)c4)ncc3F)cc2NC1=O [compound 1100]
IC50 ([1]; H1299 (lung) cells): ≤ 20 µM
IC50 ([2]; A549 (lung) cells): ≤ 20 µM

SMILES: CC(=O)N1CCN(c2ccc(Nc3ncc(F)c(Nc4cc(C(C)(C)C)[nH]n4)n3)cc2)CC1 [compound 202]
IC50 ([1]; Homo sapiens, NCI-H1299, IC50 class against H1299 (lung) tumor cells): ≤ 20 µM
IC50 ([2]; Homo sapiens, IC50 class against A549 (lung) tumor cells): ≤ 20 µM

SMILES: CNC(=O)COc1cccc(Nc2ncc(F)c(N(C)c3cc(C)c(Cl)c(C)c3)n2)c1 [compound 913]
IC50 [1, 3]: ≤ 20 µM
IC50 [2, 4]: ≤ 20 µM

SMILES: CCN(CC)CCNC(=O)c1ccc(Nc2ncc(F)c(NC3CCCC3)n2)cc1 [compound 176]
IC50 [1, 5]: ≤ 20 µM
IC50 [2, 6]: ≤ 20 µM

SMILES: Cc1cc(O)cc(Nc2ncc(F)c(Nc3ccc4c(c3)OCCO4)n2)c1 [compound 521]
IC50 [1, 7]: > 20 µM
IC50 [2, 8]: ≤ 20 µM

SMILES: Cc1cc(Nc2ncc(F)c(NC(C)C)n2)cnc1N1CCN(C)CC1 [compound 227]
IC50 [1, 5]: ≤ 20 µM
IC50 [2, 6]: ≤ 20 µM

SMILES: CNC(=O)COc1cc(Nc2ncc(F)c(Nc3cccc(O)c3)n2)cc(OCC(=O)NC)c1 [compound 798]
IC50 [1, 9]: > 20 µM
IC50 [2, 10]: > 20 µM

SMILES: Oc1c(Cl)cc(Nc2ncc(F)c(Nc3ccc(OC(F)(F)F)c(Cl)c3)n2)cc1Cl [compound 829]
IC50 [1, 9]: ≤ 20 µM
IC50 [2, 10]: ≤ 20 µM

SMILES: COc1cc(C)c(Nc2ncc(F)c(Nc3ccc4c(c3)NC(C)(C)CO4)n2)cc1Cl [compound 1142]
IC50 [1, 11]: > 20 µM
IC50 [2, 12]: ≤ 20 µM

SMILES: COc1cc(Nc2nc(Nc3ccc4[nH]c(C(C)=O)cc4c3)ncc2F)cc(OC)c1 [compound 658]
IC50 ([1]; Table 7, in vitro antiproliferation, H1299 (lung) cells): ≤ 20 µM
IC50 ([2]; Table 7, in vitro antiproliferation, A549 (lung) cells): > 20 µM

SMILES: Fc1cnc(Nc2cccc(-c3ncco3)c2)nc1Nc1ccc2c(c1)NCCO2 [compound 589]
IC50 [1, 5]: ≤ 20 µM
IC50 [2, 6]: ≤ 20 µM

SMILES: COc1cc(Cl)cc(Nc2ncc(F)c(Nc3ccc4c(c3)NC(=O)C(C)(C)O4)n2)c1 [compound 321]
IC50 [1, 13]: ≤ 20 µM
IC50 [2, 14]: ≤ 20 µM

SMILES: CC(=O)N1CCN(c2cccc(Nc3ncc(F)c(Nc4ccc5c(c4)OC(F)(F)C(F)(F)O5)n3)c2)CC1 [compound 552]
IC50 [1, 7]: ≤ 20 µM
IC50 [2, 8]: ≤ 20 µM

SMILES: CCOC(=O)N1CCC(Nc2nc(Nc3cccc(N4CCN(C)CC4)c3)ncc2F)CC1 [compound 186]
IC50 [1, 5]: ≤ 20 µM
IC50 [2, 6]: ≤ 20 µM

SMILES: COc1ccc(Nc2ncc(F)c(Nc3ccc4c(n3)NCCO4)n2)cc1Cl [compound 612]
IC50 [1, 5]: > 20 µM
IC50 [2, 6]: > 20 µM

SMILES: COc1ccc(C)c(Nc2ncc(F)c(Nc3ccc4c(c3)OCCO4)n2)c1 [compound 1047]
IC50 [1, 5]: ≤ 20 µM
IC50 [2, 6]: ≤ 20 µM

SMILES: CNC(=O)COc1ccc(Nc2ncc(F)c(Nc3ccc(OC)c(Cl)c3)n2)cc1 [compound 1025]
IC50 [1, 3]: ≤ 20 µM
IC50 [2, 4]: > 20 µM
